Reference: US20170252446A1, “USE OF MESO- AND NANOPOROUS MATERIAL FOR SURFACTANT TRAPPING IN NANOPARTICLE SUSPENSIONS” (Therakine BioDelivery GmbH, priority 2014, published 2017)

Test: Surface tension of SDS solution after repeated additions of mesoporous MCM particles (surfactant trapping)
Assay type: physicochemical
Details: pure SDS solution (8.2 mM), before addition of MCM particles
Procedure: Anionic mesoporous nanoparticles (MCM) were suspended into water, wetted, and separated from free water by centrifugation. Pure sodium dodecyl sulphate (SDS) solution (8.2 mM) provides a starting surface tension of about 36.5 mN/m. Per 1 g of MCM particles, 15 mL of SDS is added, resulting in an increase of the surface tension to 45 mN/m. Second, third, and fourth additions result in 57.5 mN/m, 66.8 mN/m, and 70.5 mN/m, respectively. After four mesoporous particle additions, the pure water value is already approached. This is illustrated in FIG. 1. Such non-limiting methods have been unexpectedly discovered to be useful for reliably and predictably preparing a stable nanoparticle suspension of a poorly soluble active ingredient. Cationic mesoporous nanoparticles (MCM) are suspended in water, wetted, and separated from free water by centrifugation. Pure sodium dodecyl sulphate (SDS) solution (8.2 mM) provides a starting surface tension of about 36.5 mN/m. Per 1 g of MCM particles, 15 mL of SDS is added, resulting in an increase of the surface tension to 40 mN/m. Second and third additions result in 54.0 mN/m and 70.0 mN/m, respectively. After three mesoporous particle additions, the pure water value is already approached. This is illustrated in FIG. 2. […]

CCCCCCCCCCCCOS(=O)(=O)[O-].[Na+] [sodium dodecyl sulphate (SDS), sodium dodecyl sulphate]
starting surface tension: about 36.5 mN/m
